These results are taken from US8394950B2, “Analogues of coformycin and their use for treating protozoan parasite infections” (Industrial Research Limited, priority 2006, dated 2013).

Where two headings read alike, the source gives them in different places.

Series [1] relates to P. falciparum. As to the kind of experiment: Visual inspection of parasitemia in infected red blood cells after 48 hours. The format is cell-based. To be noted: for parasitemia after 48 hours: 1% parasitemia initially.
For series [2] the following is noted: in vivo; cited from earlier work.
The next series relates to Plasmodium knowlesi. To be noted: single dose, primates with Plasmodium knowlesi; cited from earlier work.
For the next series, the target named is T1, HsADA (Homo sapiens, UniProt P00813).
T1 construct: Human adenosine deaminase from human erythrocytes; purchased Sigma-Aldrich Chemical Company; host or cells: human erythrocytes
T1 sequence (P00813 1-363): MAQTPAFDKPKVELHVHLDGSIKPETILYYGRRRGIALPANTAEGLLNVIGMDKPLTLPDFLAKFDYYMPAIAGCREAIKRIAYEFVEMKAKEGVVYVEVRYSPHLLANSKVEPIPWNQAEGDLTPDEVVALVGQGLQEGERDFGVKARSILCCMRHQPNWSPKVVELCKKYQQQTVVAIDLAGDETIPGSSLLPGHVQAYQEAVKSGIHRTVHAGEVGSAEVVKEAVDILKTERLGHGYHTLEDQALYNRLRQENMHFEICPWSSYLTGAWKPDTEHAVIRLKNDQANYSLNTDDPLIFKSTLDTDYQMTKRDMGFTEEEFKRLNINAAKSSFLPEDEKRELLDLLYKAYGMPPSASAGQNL
The series is described as follows: Inhibition of human adenosine deaminase (adenosine to inosine, absorbance change). The format is biochemical. How it is done:
(§1) Inhibition studies measured both initial and slow-onset rates to establish both the initial dissociation constant (Ki) and the steady-state dissociation constant (Ki*) as previously described [Kicska, G. A., Tyler, P. C., Evans, G. B., Furneaux, R. H., Kim, K., and Schramm, V. L. (2002) J Biol Chem 277, 3219-3225.]. Kd is the lower of these values.
(§2) Concentrations of inhibitors were determined spectrophotometrically using the extinction coefficient of 8250 M^−1cm^−1 at 282 nm.
(§3) (V. L. Schramm, D. C. Baker, Biochemistry, 1985, 24, 641-646). Inhibitor concentrations ranging from 10 μM to 2 nM were used for determination of the inhibition constants and an enzyme concentration of 1 nM. The Ki values were determined by fitting the initial rate and inhibitor concentrations to the following expression of competitive inhibition: (V′o/Vo)=(KM+[S])/(KM+[S]+(KM[I]/Ki)) where V′o is the initial rate in the presence of inhibitor, and Vo is the initial rate in the absence of inhibitor, [I] is the inhibitor concentration, and [S] is the substrate concentration.

The next series deals with T2, PfADA (Plasmodium falciparum, UniProt Q8IJA9).
T2 sequence (Q8IJA9 1-367): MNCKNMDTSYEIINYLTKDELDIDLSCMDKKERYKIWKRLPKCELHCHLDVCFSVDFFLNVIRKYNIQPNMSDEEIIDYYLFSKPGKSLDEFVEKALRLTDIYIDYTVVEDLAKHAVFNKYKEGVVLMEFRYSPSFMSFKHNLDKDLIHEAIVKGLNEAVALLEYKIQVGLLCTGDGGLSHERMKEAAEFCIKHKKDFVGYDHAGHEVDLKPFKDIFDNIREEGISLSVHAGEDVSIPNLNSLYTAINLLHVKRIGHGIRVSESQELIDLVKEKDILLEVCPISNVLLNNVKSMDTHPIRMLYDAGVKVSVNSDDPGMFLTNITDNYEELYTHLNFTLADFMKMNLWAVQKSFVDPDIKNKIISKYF
The series is described as follows: biochemical. The format is biochemical. How it is done:
as §1, §2, §3

A further series deals with T3, BtADA (Bos taurus, UniProt P56658).
T3 construct: bovine adenosine deaminase from bovine spleen; purchased Sigma-Aldrich Chemical Company; host or cells: bovine spleen
T3 sequence (P56658 1-363): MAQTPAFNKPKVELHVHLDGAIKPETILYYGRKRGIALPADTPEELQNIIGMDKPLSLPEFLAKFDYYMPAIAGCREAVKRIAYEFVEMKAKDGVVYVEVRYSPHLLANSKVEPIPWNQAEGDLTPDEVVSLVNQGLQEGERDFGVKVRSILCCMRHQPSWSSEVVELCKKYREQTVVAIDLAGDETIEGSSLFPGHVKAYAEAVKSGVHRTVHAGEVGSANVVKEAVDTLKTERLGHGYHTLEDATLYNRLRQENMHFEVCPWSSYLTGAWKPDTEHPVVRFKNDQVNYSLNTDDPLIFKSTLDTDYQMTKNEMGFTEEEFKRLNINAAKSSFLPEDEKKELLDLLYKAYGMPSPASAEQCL
As to the kind of experiment: Inhibition of bovine adenosine deaminase (adenosine to inosine, absorbance change). The format is biochemical. As for the experimental part:
as §1, §2, §3

The test system of series [3] is P. falciparum. The settings on record: cited from earlier work; for killing of P. falciparum in culture (in words): in culture / growing in human erythrocytes.
Another series concerns P. falciparum strain 3D7. As to the kind of experiment: P. falciparum culture kill curves, uptake of tritiated ethanolamine in red blood cells. The format is cell-based. To be noted: for IC50: read-out: IC50, prevention of growth of P. falciparum (uptake of tritiated ethanolamine). As for the experimental part:
Human erythrocytes were collected from local volunteers under protocol CCI 00-31 or CCI 99-240 of the Albert Einstein College of Medicine. Cultures of P. falciparum strain 3D7 were grown in RPMI supplemented with 0.5% Albumax II (Invitrogen) and were sorbitol-synchronized twice before initiation of the 72 hour assay in 96-well plates with a total volume of 200 μL at 1% hematocrit and 0.8% parasitemia (100% rings). […] Drugs were dissolved in water and diluted with media prior to addition to cultures. […] After 54 h, cell cultures were frozen and thawed to disrupt cells, and the mixtures were harvested on glass fiber filters. Filters were counted in a Winspectral 1414 scintillation counter. Experiments were done twice with six replicate wells for each experiment. Individual data points more than two standard deviations from the mean were discarded. For some experiments, parasitemias were counted on Giemsa-stained smears of cultures treated in parallel.

The mark [4] stands for this setting: methylthioadenosine (100 μM) alone.
The mark [5] stands for this setting: initial dissociation constant, 100 μM adenosine, pH 7.0, 30° C., read-out: PfADA Ki.
[6] abbreviates: no detectible slow onset, read-out: dissociation constants (PfADA).
[7] abbreviates: methylthioadenosine (100 μM) plus compound (10 μM).

Take 5′-methylthioadenosine: in the series with P. falciparum [1] (setting [4]), the “parasitemia after 48 hours” value was 8% and the “parasites in the ring form after 48 hours” value was 97%.
With `OC[C@H]1O[C@@H](n2cnc3c2NC=NC[C@H]3O)C[C@@H]1O` [2′-deoxycoformycin], in series [2], the “toxicity in mammals (in words)” value is “highly toxic”. Besides, the “effect on parasitemia (in words)” value in the series on Plasmodium knowlesi is “dramatically reduced parasitemia”.
Consider `CSC[C@H]1O[C@@H](n2cnc3c2N=CNC[C@H]3O)C[C@@H]1O` [5′-MeS-2′-deoxycoformycin (16), (8R)-3-(2′-deoxy-5′-methylthio-β,D-erythro-pentofuranosyl)-8-hydroxy-3,6,7,8-tetrahydroimidazo[4,5-d][1,3]diazepine], for which the Ki is > 10000 nM on HsADA (read-out: HsADA Ki); 2.3 ± 0.8 nM on PfADA (setting [5]); 0.73 ± 0.22 nM on PfADA (slow onset equilibrium dissociation constant, read-out: PfADA Ki^a); > 10000 nM on BtADA (read-out: BtADA Ki).
`CSC[C@H]1N[C@@H](c2c[nH]c3c(=O)[nH]cnc23)[C@H](O)[C@@H]1O` [5′-Methylthio-Immucillin-H]: the “killing of P. falciparum in culture (in words)” value is listed as “able to kill P. falciparum growing in human erythrocytes” in the series with P. falciparum [3] and “kill P. falciparum in culture” in the series with P. falciparum [3] (listed as 5′-methylthio-Immucillin-H).
On to `O[C@@H]1CNC=Nc2c1ncn2[C@H]1C[C@H](O)[C@@H](CSc2ccccc2)O1` [5′-PhS-2′-deoxycoformycin (18), (8R)-3-(2′-deoxy-5′-phenylthio-β,D-erythro-pentofuranosyl)-8-hydroxy-3,6,7,8-tetrahydroimidazo[4,5-d][1,3]diazepine], for which the “inhibition of PfADA (in words)” value at PfADA is on record as “no detectible slow onset”. The Ki on PfADA (setting [5]) was 61 ± 11 nM; at PfADA (setting [6]) it was 61 nM; at BtADA (read-out: BtADA Ki), > 10000 nM.
In the case of `CCCSC[C@H]1O[C@@H](n2cnc3c2N=CNC[C@H]3O)C[C@@H]1O` [5′-PrS-2′-deoxycoformycin (17), (8R)-3-(2′-deoxy-5′-propylthio-β,D-erythro-pentofuranosyl)-8-hydroxy-3,6,7,8-tetrahydroimidazo[4,5-d][1,3]diazepine], the Ki on HsADA (read-out: HsADA Ki) is > 10000 nM; at PfADA (setting [5]) it was 12 ± 1 nM; on PfADA (setting [6]), 12 nM; on BtADA (read-out: BtADA Ki), > 10000 nM. For the same molecule, the “inhibition of PfADA (in words)” value against PfADA is recorded as “no detectible slow onset”.
As to `OC[C@H]1O[C@@H](n2cnc3c2N=CNC[C@H]3O)[C@H](O)[C@@H]1O` [Coformycin], the “parasitemia after 48 hours” value in the series with P. falciparum [1] (setting [7]) was 1%. Also, the “parasites in the trophozoite form after 48 hours” value in the series on P. falciparum [1] (setting [7]) came out at 100%. The Ki at HsADA (HsADA Ki (nM), initial dissociation constant, 100 μM adenosine, pH 7.0, 30° C., >10,000 = no inhibition at 10 μM) was 13.9 ± 3.4 nM; on HsADA (HsADA Ki^a (nM), slow onset equilibrium dissociation constant), 0.11 ± 0.02 nM; at PfADA (PfADA Ki (nM), initial dissociation constant, 100 μM adenosine, pH 7.0, 30° C.), 0.68 ± 0.07 nM; on PfADA (PfADA Ki^a (nM), slow onset equilibrium dissociation constant), 0.08 ± 0.02 nM; at PfADA (tightest dissociation constants, slow onset inhibition, range over all three enzymes (BtADA, HsADA, PfADA)), 0.027 to 0.11 nM; at BtADA (BtADA Ki (nM), initial dissociation constant, 100 μM adenosine, pH 7.0, 30° C., >10,000 = no inhibition at 10 μM), 1.1 ± 0.4 nM. At BtADA (BtADA Ki^a (nM), slow onset equilibrium dissociation constant), this molecule showed a Ki of 0.06 ± 0.01 nM. Besides, the “inhibition of human ADA (in words)” value against HsADA (mammalian ADAs) is given as “inhibiting mammalian ADAs with equivalent potency”. Further, on PfADA (PfADA), the “potency relative to 5′-methylthiocoformycin (times more potent)” value is given as “about 5 times”. Also, at BtADA (mammalian ADAs), the “inhibition of bovine ADA (in words)” value is reported as “inhibiting mammalian ADAs with equivalent potency”. Further, the concentration for half-maximal inhibition (IC50) in the series on P. falciparum strain 3D7 (Plasmodium falciparum, 3D7, Erythrocyte, 72 h) amounted to 3.5 nM.
In the case of `O=c1[nH]cnc2c([C@@H]3N[C@H](CO)[C@@H](O)[C@H]3O)c[nH]c12` [Immucillin-H], the “time to purine-less death” value with P. falciparum [3] (P. falciparum-infected erythrocytes, simultaneous inhibition of host and parasite PNP) is ≤ 24 h.
Turning to “(8R)-8-hydroxy-3-(5-methylthio-β-D-ribofuranosyl)-3,6,7,8-tetrahydroimidazo[4,5-d][1,3]diazepine [5′-MeS-Coformycin (8)]”, in the series on P. falciparum [1] (setting [7]), the “parasitemia after 48 hours” value is 1% and the “parasites in the trophozoite form after 48 hours” value is 100%. The “killing of P. falciparum growing in human erythrocytes (in words)” value in the series on P. falciparum strain 3D7 is reported as “kills P. falciparum growing in human erythrocytes”. Besides, in the series on P. falciparum strain 3D7 (strain 3D7 in red blood cells, 72 hour assay, no hypoxanthine supplementation), the IC50 turned out to be 62 nM.

As usually defined, the IC50 is the concentration that inhibits the measured activity by half.
